Two compounds from patent US20090004726A1, “Inhibitor Tolerant Saccharomyces Cerevisiae Strain” (The United States of America, as represented by the …, priority 2007, published 2009) can be followed below.

Series [1] has as its system furfural reduction activity of Y-50049 whole cell extracts. As to the kind of experiment: Whole cell lysate enzyme assay after inhibitor induction (absorbance at 340 nm). Format: biochemical, Saccharomyces cerevisiae. Particulars: induction with 30 mM inhibitor for 3 h; 10 mM furfural substrate; 100 μM NADPH.
Series [2] has as its system Saccharomyces cerevisiae NRRL Y-12632. As to the kind of experiment: Dose-dependent response of ethanologenic yeast to HMF (cell growth, OD600).
Procedure: A loopful of cells of each strain from the synthetic medium agar plate was transferred into a synthetic broth and incubated at 30° C. with agitation and maintained in the broth prior to inoculum preparation. Cells were harvested by centrifugation 8-15 hours after incubation and suspended in a fresh synthetic broth serving as the inoculum source. The initial OD at 620 nm of the inoculated medium for each culture was adjusted and recorded. Each strain was grown in a 15-ml test tube containing 3 ml of synthetic broth amended with inhibitory compounds in an incubator at 30° C. with agitation at 220 rpm under micro-oxic conditions. Cell growth was monitored by measuring optical absorbance at 620 nm using a spectrophotometer and samples were taken periodically.
For inhibitor application, cultures were supplemented with HMF at a series of final concentrations of 0, 10, 30, 60, and 120 mM, or combined inhibitors of furfural and HMF each at 12 mM, respectively. A non inhibitor treated culture served as a control. Cultures were monitored for cell growth at OD600 and samples were taken hourly for the first 16 hours and proper intervals afterward till the completion of the fermentation. Cell free supernatant was taken for metabolic profiling analysis using HPLC. […] Duplicated experiments were carried out for all treatments.

For the compound `O=Cc1ccc(CO)o1` [HMF, 5-hydroxymethylfurfural], in series [1], the “induced furfural reduction activity coupled with cofactor NADPH” value was “ranked the least”. The cell growth result in series [2] (HMF at 120 mM) is on record as “no cell growth was observed”; in series [2] (HMF at 10, 30 and 60 mM, compared with control) it was “delayed”. Besides, the “lethal dose (cells completely repressed, no biological activity or HMF transformation till 128 hours)” value in series [2] (synthetic medium, 30° C.) turned out to be 120 mM.
Take `O=Cc1ccco1` [furfural]: the “induced furfural reduction activity coupled with cofactor NADPH” value in series [1] is “strongest activities”.
